Experimental data reported in ChEMBL document CHEMBL1201862, “PubChem BioAssay data set” (2004).
Active and inactive are the calls of the source.

What was measured:
[1] = A Cell Based Secondary Assay To Explore Cytotoxicity of Compounds that Sensitize Mycobacterium Tuberculosis to Beta-Lactam Antibiotics.; assay type: functional
[2] = Trypanosoma cruzi growth suppression in host cells – NIH3T3 host cells, beta-gal luminescence, confirmation (AID 2044); assay type: functional, cell-based;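 note: intracellular parasites grown in NIH/3T3 mouse fibroblasts as host cells; luminescent beta-galactosidase reporter signal from transgenic T. cruzi replicating inside host cells; inhibitors lower the luminescence signal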
[3] = NIH3T3 cell viability loss – ATP luminescence, mouse fibroblasts, counter-screen, dose response (AID 2010); assay type: functional, cell-based;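 note: cells exposed to compound for about 90 hours before reading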
[4] = cells
[5] = system: INS1; assay: INS-1E survival protection against cytokine death – cell-based, luminescence, retest, dose response (AID 449756); assay type: functional; conditions: Rattus norvegicus;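 note: cell death triggered by IL-1 beta plus TNF-alpha plus IFN-gamma mixture; protective hits raise ATP signal compared with cytokine alone wells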
[6] = blockade of melanocortin 4 receptor signaling – cell-based, plate reader, cherry pick, counter-screen for LGR2 antagonist project, dose response (AID 743444); assay type: functional;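 note: transfected HEK 293 cells stimulated with alpha-MSH peptide; potency of inhibitors of the alpha-MSH evoked signal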
[7] = cells; assay type: functional, cell-based
[8] = biological target: T1, Probable nicotinate-nucleotide adenylyltransferase (Staphylococcus aureus (strain N315), UniProt P65502); assay type: functional, Staphylococcus aureus subsp. aureus N315; conditions: read-out: IC50_Mean;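 for IC50 Mean: confirmatory dose-response retesting of NadD inhibitor hits first found in an ultra-high-throughput screen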
[9] = biological target: T1, Probable nicotinate-nucleotide adenylyltransferase; assay type: functional, Staphylococcus aureus subsp. aureus N315
[10] = biological target: Nonstructural protein 1 (Influenza A virus, UniProt Q194T2); assay type: functional, Influenza A virus (A/California/07/2009(H1N1))
[11] = system: Streptococcus; assay: GAS UMAA2166 growth inhibition – luminescence, BacTiterGlo, counter-screen for streptokinase expression inhibitor project, dose response (AID 1915); assay type: functional, organism-based;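 note: potency for reduction of bacterial viability or growth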
[12] = cells; assay type: functional, cell-based; remark: listed apart in the source
[13] = system: Streptococcus sp. 'group A'; assay: Streptococcus pyogenes SK(-)GAS viability under kanamycin – luminescence, BacTiterGlo, confirmation, counter-screen for streptokinase expression inhibitor project, dose response (AID 1900); assay type: functional, organism-based
[14] = biological target: T2, Streptokinase A (Streptococcus pyogenes serotype M1, UniProt P10520); assay: viability-normalized secreted streptokinase activity reduction – plasminogen activation absorbance, OD405, dose response (AID 1914); assay type: functional, Streptococcus pyogenes M1 GAS;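 note: secreted streptokinase activity via plasminogen activation per viability signal from cell pellet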
T2 sequence (P10520 whole entry): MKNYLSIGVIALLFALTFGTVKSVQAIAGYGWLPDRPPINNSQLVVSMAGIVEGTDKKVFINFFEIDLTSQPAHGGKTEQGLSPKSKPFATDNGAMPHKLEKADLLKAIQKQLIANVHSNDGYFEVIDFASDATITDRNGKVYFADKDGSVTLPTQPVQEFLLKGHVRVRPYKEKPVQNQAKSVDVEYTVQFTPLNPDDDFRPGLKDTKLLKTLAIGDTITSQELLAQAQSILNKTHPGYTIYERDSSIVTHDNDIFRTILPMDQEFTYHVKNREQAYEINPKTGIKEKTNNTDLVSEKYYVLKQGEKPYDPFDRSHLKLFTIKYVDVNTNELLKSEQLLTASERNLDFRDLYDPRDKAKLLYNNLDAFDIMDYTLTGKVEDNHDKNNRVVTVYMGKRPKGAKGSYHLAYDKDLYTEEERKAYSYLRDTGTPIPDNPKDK

[15] = A cytotoxicity screen of small molecule inhibitors of the PhoP region in Salmonella typhi identified in the primary screen. [Related pubchem assays: 1850, 1864, 1985 ]; assay type: functional
[16] = viability of uninfected HEp-2 cells – cell-based, HTS, cytotoxicity control for RSV inhibitor project, dose response (AID 2410); assay type: functional; conditions: human respiratory syncytial virus
[17] = biological target: T3, Fatty acid synthase (Homo sapiens, UniProt P49327); assay: inhibition of human FAS-TE enzyme activity – biochemical, kinetic fluorescence intensity, dose response (AID 624326); assay type: functional;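 note: rate of fluorescence rise from hydrolysis of a fluorogenic O-methyl fluorescein ester substrate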
[18] = biological target: T3, Fatty acid synthase; assay: inhibition of human FAS-TE enzyme activity – biochemical, endpoint fluorescence intensity, uHTS hits, dose response (AID 624327); assay type: functional;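 note: fluorescence from hydrolysis of an O-methyl fluorescein acyl ester substrate by the enzyme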

T1 sequence (P65502 whole entry): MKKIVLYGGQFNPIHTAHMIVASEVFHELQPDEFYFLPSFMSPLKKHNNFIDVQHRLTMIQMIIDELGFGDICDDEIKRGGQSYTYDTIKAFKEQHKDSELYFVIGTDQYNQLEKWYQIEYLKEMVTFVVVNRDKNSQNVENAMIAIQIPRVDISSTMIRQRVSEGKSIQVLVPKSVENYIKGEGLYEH
T3 sequence (P49327 whole entry): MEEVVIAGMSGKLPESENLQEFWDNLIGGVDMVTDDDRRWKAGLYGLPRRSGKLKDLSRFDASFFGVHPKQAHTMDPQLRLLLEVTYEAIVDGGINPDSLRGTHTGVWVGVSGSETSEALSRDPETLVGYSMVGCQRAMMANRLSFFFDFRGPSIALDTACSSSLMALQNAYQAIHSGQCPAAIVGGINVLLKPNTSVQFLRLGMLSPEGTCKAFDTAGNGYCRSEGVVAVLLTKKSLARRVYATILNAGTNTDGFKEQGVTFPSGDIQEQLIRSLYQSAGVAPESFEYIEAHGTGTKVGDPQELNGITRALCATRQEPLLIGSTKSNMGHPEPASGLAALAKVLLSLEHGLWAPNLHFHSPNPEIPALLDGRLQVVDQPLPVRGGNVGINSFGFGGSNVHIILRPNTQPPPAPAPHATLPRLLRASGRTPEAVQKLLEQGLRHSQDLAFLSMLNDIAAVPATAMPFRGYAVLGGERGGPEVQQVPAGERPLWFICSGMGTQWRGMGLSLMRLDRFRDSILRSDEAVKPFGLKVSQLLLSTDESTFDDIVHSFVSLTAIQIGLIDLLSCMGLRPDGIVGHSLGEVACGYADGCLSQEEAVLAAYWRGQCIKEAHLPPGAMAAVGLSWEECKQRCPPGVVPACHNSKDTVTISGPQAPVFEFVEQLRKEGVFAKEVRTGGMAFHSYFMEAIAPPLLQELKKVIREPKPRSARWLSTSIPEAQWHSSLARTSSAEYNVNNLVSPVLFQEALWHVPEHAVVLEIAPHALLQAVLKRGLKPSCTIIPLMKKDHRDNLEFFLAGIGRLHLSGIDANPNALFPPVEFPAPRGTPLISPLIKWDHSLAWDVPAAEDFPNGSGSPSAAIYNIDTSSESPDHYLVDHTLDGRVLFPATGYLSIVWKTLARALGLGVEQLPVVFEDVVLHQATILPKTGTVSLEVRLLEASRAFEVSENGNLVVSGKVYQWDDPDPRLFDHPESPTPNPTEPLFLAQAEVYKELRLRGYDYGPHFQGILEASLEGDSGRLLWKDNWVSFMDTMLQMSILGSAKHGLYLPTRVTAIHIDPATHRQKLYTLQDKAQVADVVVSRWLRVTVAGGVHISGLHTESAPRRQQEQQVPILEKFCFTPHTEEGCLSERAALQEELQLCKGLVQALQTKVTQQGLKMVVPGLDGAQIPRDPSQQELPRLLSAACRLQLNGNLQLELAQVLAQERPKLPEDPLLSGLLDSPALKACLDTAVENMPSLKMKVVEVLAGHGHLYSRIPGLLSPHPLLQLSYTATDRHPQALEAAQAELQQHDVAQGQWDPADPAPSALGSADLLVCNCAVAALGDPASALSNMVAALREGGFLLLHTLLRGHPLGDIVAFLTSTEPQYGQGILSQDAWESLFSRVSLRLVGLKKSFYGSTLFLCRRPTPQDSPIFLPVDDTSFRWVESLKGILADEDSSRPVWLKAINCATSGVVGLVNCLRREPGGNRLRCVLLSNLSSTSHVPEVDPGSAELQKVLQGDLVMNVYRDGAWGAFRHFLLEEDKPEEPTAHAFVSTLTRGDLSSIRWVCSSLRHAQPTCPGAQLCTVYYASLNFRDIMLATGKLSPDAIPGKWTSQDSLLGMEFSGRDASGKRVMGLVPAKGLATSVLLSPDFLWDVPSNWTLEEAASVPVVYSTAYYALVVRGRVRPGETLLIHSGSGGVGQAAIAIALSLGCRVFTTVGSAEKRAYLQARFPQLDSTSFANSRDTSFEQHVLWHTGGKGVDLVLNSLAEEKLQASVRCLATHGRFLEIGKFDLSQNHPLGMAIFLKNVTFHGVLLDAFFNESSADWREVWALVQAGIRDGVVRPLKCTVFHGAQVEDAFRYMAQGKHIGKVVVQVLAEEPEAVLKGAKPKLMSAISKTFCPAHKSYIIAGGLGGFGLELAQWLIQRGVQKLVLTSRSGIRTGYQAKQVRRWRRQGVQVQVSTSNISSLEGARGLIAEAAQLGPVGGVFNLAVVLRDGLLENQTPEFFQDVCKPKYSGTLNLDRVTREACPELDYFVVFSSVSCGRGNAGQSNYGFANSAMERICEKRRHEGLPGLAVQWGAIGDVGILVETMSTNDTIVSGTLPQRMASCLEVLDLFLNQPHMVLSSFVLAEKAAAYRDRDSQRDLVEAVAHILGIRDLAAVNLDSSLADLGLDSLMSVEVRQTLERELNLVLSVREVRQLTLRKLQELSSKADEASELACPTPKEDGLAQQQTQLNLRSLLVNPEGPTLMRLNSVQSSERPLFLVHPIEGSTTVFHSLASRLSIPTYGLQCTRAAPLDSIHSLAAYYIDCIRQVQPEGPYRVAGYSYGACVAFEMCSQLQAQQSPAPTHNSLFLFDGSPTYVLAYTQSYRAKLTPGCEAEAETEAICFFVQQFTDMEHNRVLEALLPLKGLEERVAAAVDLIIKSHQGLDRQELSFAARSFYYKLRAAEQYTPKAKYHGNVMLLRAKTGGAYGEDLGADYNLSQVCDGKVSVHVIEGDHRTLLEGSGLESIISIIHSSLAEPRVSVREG
Nonstructural protein 1, sequence (Q194T2 whole entry): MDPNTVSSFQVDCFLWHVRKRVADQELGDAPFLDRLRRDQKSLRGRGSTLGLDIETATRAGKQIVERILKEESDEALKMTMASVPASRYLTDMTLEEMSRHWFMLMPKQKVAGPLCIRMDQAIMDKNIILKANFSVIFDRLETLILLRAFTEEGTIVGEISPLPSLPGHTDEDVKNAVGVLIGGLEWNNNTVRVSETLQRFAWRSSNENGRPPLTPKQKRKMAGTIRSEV

SMILES: N#Cc1ccc(C23CC4(C2)[C@H](CN(Cc2cccnc2)[C@@H]4c2ccccc2)C3c2ccccc2)cc1 (stereo partly specified)
- CC50 [1]: > 40 µM (active)

SMILES: CC(=O)Nc1nc(-c2cccc3ccccc23)cs1
- EC50 [2]: < 0.1 µM (active)
- EC50 [3]: > 60 µM (not active)
- EC50 [4]: 0.264 µM (active)

SMILES: Cc1ccc2nc(-c3ccc(NC(=O)c4cccnc4)cc3)oc2c1
- AC50 [5]: 4.63 µM (active)
- AC50 [6]: 29.2 µM (active)

SMILES: Cc1cccc2sc(NNC(=O)c3ccc(S(=O)(=O)N4CCc5ccccc5C4)cc3)nc12
- AC50 [5]: 1.8 µM (active)
- EC50 [7]: > 350 µM (not active)
- IC50 [8]: 56.7 µM (active)
- IC50 [9]: 13.8 µM (active)
- IC50 [10]: > 100 µM (active)
- EC50 [2]: 0.733 µM (active)
- EC50 [11]: 33.6 µM (active)
- EC50 [3]: 2.62 µM (active)
- EC50 [12]: 12 µM (active)
- EC50 [13]: 2.4 µM (active)
- EC50 [14]: > 150 µM (not active)

SMILES: CC1(C)CC(=O)C2=C(C1)N(c1ccc(F)cc1)C(=O)CC2c1ccsc1 (stereo unspecified)
- EC50 [15]: > 50 µM (active)

SMILES: O=C(Nc1ccc(N2CCOCC2)c(Cl)c1)c1ccccc1F
- EC50 [15]: > 50 µM (active)

SMILES: Cc1ccccc1Oc1ccc(Oc2ccccc2C)nn1
- EC50 [15]: > 50 µM (active)

SMILES: Cc1ccc2c(C)nc(N=C(N)NS(=O)(=O)c3ccc([N+](=O)[O-])cc3)nc2c1
- CC50 [16]: 45.4 µM (active)
- IC50 [17]: 8.96 µM (active)
- EC50 [2]: < 0.1 µM (active)
- EC50 [3]: > 60 µM (not active)
- IC50 [18]: 10.9 µM (active)
- EC50 [4]: 0.273 µM (active)
